Data reported in publication PMC11284788, “NN1213 – A Potent, Long-Acting, and Selective Analog of Human Amylin” (Journal of Medicinal Chemistry, 2024).
Converted amounts (≈) assume the structure as drawn. Where two headings read alike, the source gives them in different places. Numbered stars: 1 amine (or outer) side, 2 acyl side, 3 side chain; on linkers, the order of the positions; unused ones are H or OH. Bridge positions count the residues as written; N and C are the ends. Side chains are listed from the residue outwards. Peptide text beside a SMILES is read from it. * marks the point of attachment. C20 diacid = O=C(O)CCCCCCCCCCCCCCCCCCC(=O)*; γGlu = O=C(O)[C@H](CCC(=O)[*:2])N[*:1]; AEEA = NCCOCCOCC(=O)O

Key:
[1] = Solubility versus pH profile
hAMY3R = target: T1, hAMY3R (Homo sapiens, UniProt O60896+P30988); experiment: cAMP-responsive element luciferase reporter assay, human AMY3R; type: cell-based; set-up: expressed in transfected cells; conditions: for ratio hCTR/hAMY3R: ratio of luciferase EC50 values
T1 sequence (P30988 25-474): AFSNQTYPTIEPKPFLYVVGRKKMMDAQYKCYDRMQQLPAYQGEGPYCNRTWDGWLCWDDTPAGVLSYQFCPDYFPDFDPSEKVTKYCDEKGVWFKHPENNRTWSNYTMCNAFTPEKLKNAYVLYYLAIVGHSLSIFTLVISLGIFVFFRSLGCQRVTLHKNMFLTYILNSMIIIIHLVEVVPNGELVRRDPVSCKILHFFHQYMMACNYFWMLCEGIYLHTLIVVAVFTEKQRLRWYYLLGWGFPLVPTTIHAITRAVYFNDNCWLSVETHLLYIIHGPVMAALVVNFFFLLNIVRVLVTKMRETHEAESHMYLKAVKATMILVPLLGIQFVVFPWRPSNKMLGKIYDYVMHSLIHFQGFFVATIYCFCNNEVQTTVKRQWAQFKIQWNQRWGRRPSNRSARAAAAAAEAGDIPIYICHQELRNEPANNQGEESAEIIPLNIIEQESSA
T1 sequence (O60896 24-148 partner): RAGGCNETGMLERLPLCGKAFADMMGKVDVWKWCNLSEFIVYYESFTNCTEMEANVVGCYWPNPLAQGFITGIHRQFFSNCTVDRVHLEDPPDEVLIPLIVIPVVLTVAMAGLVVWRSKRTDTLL

rAMY3R = target: T2, rAMY3R (Rattus norvegicus, UniProt P32214+Q9JJ73); experiment: scintillation proximity binding assay, rAMY3R membranes; set-up: expressed in transfected cells; host or cells: BHK tk-ts 13, transient co-transfection (FuGENE 6); conditions: for ratio rCTR/rAMY3R: ratio of binding IC50 values
T2 sequence (P32214 25-479 isoform P32214-2 limits assumed): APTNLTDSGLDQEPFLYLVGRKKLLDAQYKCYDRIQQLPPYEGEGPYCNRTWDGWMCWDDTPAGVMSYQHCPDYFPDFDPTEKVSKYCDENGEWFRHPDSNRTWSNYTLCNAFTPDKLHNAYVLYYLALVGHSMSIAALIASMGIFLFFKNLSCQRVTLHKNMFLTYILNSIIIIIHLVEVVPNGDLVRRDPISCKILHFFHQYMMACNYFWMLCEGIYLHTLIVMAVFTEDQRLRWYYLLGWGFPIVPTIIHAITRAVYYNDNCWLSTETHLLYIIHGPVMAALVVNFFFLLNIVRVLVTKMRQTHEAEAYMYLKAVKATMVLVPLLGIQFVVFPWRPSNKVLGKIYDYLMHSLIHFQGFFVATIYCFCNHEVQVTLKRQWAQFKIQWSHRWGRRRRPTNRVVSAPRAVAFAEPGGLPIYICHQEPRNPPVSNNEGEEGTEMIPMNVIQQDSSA
T2 sequence (Q9JJ73 23-147 partner): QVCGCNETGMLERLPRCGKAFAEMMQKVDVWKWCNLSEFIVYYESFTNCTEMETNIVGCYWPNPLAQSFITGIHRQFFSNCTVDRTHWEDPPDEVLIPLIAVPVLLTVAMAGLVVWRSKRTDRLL

[2] = bis-tris-propane buffer, pH 6, aqueous buffer
[3] = bis-tris-propane buffer, pH 6.5, aqueous buffer
[4] = bis-tris-propane buffer, pH 7, aqueous buffer
[5] = bis-tris-propane buffer, pH 7.5, aqueous buffer
[6] = bis-tris-propane buffer, pH 8, aqueous buffer
[7] = lactate buffer, pH 4, aqueous buffer
[8] = lactate buffer, pH 5, aqueous buffer
[9] = luciferase (human receptor assay), Tables S12 and S14, read-out: hAMY3R pEC50 (converted)
[10] = luciferase (human receptor assay), BHK cells stably expressing hCTR+RAMP3 and CRE-luciferase, 3 h, 37 °C, 10% FBS, read-out: hAMY3R EC50
[11] = SPA binding assay, Tables S13 and S15
[12] = SPA, BHK cell membranes, 125I-rat amylin, 120 min 25 °C, read-out: rAMY3R IC50

| solubility kinetic [1, 2] | solubility kinetic [1, 3] | solubility kinetic [1, 4] | solubility kinetic [1, 5] | solubility kinetic [1, 6] | solubility kinetic [1, 7] | solubility kinetic [1, 8] | EC50 (hAMY3R; [9]) | EC50 (hAMY3R; [10]) | ratio hCTR/hAMY3R (hAMY3R) | rAMY3R pIC50 (rAMY3R; [11]) | ratio rCTR/rAMY3R (rAMY3R) | IC50 (rAMY3R; SPA binding assay, Tables S13 and S15, read-out: rAMY3R pIC50 (converted)) | IC50 (rAMY3R; [12]) | hAMY3R pEC50 (hAMY3R; luciferase (human receptor assay), Tables S12 and S14) | SMILES |
| --- | --- | --- | --- | --- | --- | --- | --- | --- | --- | --- | --- | --- | --- | --- | --- |
| ≥ 200 µM | ≥ 200 µM | ≥ 200 µM | ≥ 200 µM | ≥ 200 µM | ≥ 200 µM | 172 µM (≈ 776 µg/mL) | 0.219 nM | 0.219 nM | 12 | 8.89 | 81 |  |  |  | CC(C)C[C@H](NC(=O)[C@H](CCCNC(=N)N)NC(=O)[C@H](CCC(N)=O)NC(=O)[C@@H](NC(=O)[C@H](C)NC(=O)[C@@H]1CSSC[C@H](NC(=O)[C@@H](N)CCCCNC(=O)CC[C@H](NC(=O)CC[C@H](NC(=O)CCCCCCCCCCCCCCCCCCC(=O)O)C(=O)O)C(=O)O)C(=O)N[C@@H](CC(N)=O)C(=O)N[C@@H]([C@@H](C)O)C(=O)N[C@@H](C)C(=O)N[C@@H]([C@@H](C)O)C(=O)N1)[C@@H](C)O)C(=O)N[C@@H](C)C(=O)N[C@@H](CC(=O)O)C(=O)N[C@@H](Cc1ccccc1)C(=O)N[C@@H](CC(C)C)C(=O)N[C@@H](CCCNC(=N)N)C(=O)N[C@@H](Cc1c[nH]cn1)C(=O)N[C@@H](CO)C(=O)N[C@@H](CO)C(=O)N1CCC[C@H]1C(=O)N[C@@H](CC(N)=O)C(=O)N[C@@H](Cc1ccccc1)C(=O)NCC(=O)N[C@@H](C)C(=O)N1CCC[C@H]1C(=O)N[C@@H](CC(C)C)C(=O)N[C@@H](CO)C(=O)N[C@@H](CO)C(=O)N[C@H](C(=O)N[C@@H](CC(N)=O)C(=O)N[C@H](C(=O)NCC(=O)N[C@@H](CO)C(=O)N[C@@H](CC(=O)O)C(=O)N[C@H](C(=O)N[C@@H](Cc1ccc(O)cc1)C(N)=O)[C@@H](C)O)C(C)C)[C@@H](C)O [Peptide 5] (H-K([γGlu-γGlu-C20 diacid])CNTATCATQRLADFLRHSSPNFGAPLSSTNVGSDTY-NH2; disulfide 2-7) |
| ≥ 200 µM | ≥ 200 µM | ≥ 200 µM | ≥ 200 µM | ≥ 200 µM | ≥ 200 µM | ≥ 200 µM | 0.151 nM | 0.151 nM | 17 |  | 39 | 1.29 nM | 1.29 nM |  | CC[C@H](C)[C@H](NC(=O)[C@H](C)NC(=O)CNC(=O)[C@H](Cc1ccccc1)NC(=O)[C@H](CC(N)=O)NC(=O)[C@@H]1CCCN1C(=O)[C@H](CO)NC(=O)[C@H](CO)NC(=O)[C@H](Cc1c[nH]cn1)NC(=O)[C@H](CCCNC(=N)N)NC(=O)[C@H](CC(C)C)NC(=O)[C@H](Cc1ccccc1)NC(=O)[C@H](CC(N)=O)NC(=O)[C@H](C)NC(=O)[C@H](CC(C)C)NC(=O)[C@H](CCCNC(=N)N)NC(=O)[C@H](CCC(N)=O)NC(=O)[C@@H](NC(=O)[C@H](C)NC(=O)[C@@H]1CSSC[C@H](NC(=O)[C@H](CCCCN)NC(=O)CC[C@H](NC(=O)CCCCCCCCCCCCCCCCCCC(=O)O)C(=O)O)C(=O)N[C@@H](CC(N)=O)C(=O)N[C@@H]([C@@H](C)O)C(=O)N[C@@H](C)C(=O)N[C@@H]([C@@H](C)O)C(=O)N1)[C@@H](C)O)C(=O)N1CCC[C@H]1C(=O)N[C@@H](CO)C(=O)N[C@@H](CO)C(=O)N[C@H](C(=O)N[C@@H](CC(N)=O)C(=O)N[C@H](C(=O)NCC(=O)N[C@@H](Cc1c[nH]cn1)C(=O)N[C@@H](CC(N)=O)C(=O)N[C@H](C(=O)N[C@@H](Cc1ccc(O)cc1)C(N)=O)[C@@H](C)O)C(C)C)[C@@H](C)O [Peptide 17] |
| ≥ 200 µM | ≥ 200 µM | ≥ 200 µM | ≥ 200 µM | ≥ 200 µM | ≥ 200 µM | ≥ 200 µM |  |  | 19 |  | 57 |  |  |  | CC[C@H](C)[C@H](NC(=O)[C@H](C)NC(=O)CNC(=O)[C@H](Cc1ccccc1)NC(=O)[C@H](CC(N)=O)NC(=O)[C@@H]1CCCN1C(=O)[C@H](CO)NC(=O)[C@H](CO)NC(=O)[C@H](Cc1c[nH]cn1)NC(=O)[C@H](CCCNC(=N)N)NC(=O)[C@H](CC(C)C)NC(=O)[C@H](Cc1ccccc1)NC(=O)[C@H](CC(N)=O)NC(=O)[C@H](C)NC(=O)[C@H](CC(C)C)NC(=O)[C@H](CCCNC(=N)N)NC(=O)[C@H](CCC(N)=O)NC(=O)[C@@H](NC(=O)[C@H](C)NC(=O)[C@@H]1CSSC[C@H](NC(=O)[C@H](CCCCN)NC(=O)COCCOCCNC(=O)CC[C@H](NC(=O)CCCCCCCCCCCCCCCCCCC(=O)O)C(=O)O)C(=O)N[C@@H](CC(N)=O)C(=O)N[C@@H]([C@@H](C)O)C(=O)N[C@@H](C)C(=O)N[C@@H]([C@@H](C)O)C(=O)N1)[C@@H](C)O)C(=O)N1CCC[C@H]1C(=O)N[C@@H](CO)C(=O)N[C@@H](CO)C(=O)N[C@H](C(=O)N[C@@H](CC(N)=O)C(=O)N[C@H](C(=O)NCC(=O)N[C@@H](CO)C(=O)N[C@@H](Cc1c[nH]cn1)C(=O)N[C@H](C(=O)N[C@@H](Cc1ccc(O)cc1)C(N)=O)[C@@H](C)O)C(C)C)[C@@H](C)O [Peptide 18] ({C20 diacid-γGlu-AEEA}-KCNTATCATQRLANFLRHSSPNFGAIPSSTNVGSHTY-NH2; disulfide 2-7; N-terminus assumed) |
| ≥ 200 µM | ≥ 200 µM | ≥ 200 µM | ≥ 200 µM | ≥ 200 µM | ≥ 200 µM | ≥ 200 µM |  |  | 12 | 8.75 | 55 |  | 1.77 nM | 9.66 | CC[C@H](C)[C@H](NC(=O)[C@H](C)NC(=O)CNC(=O)[C@H](Cc1ccccc1)NC(=O)[C@H](CC(N)=O)NC(=O)[C@@H]1CCCN1C(=O)[C@H](CO)NC(=O)[C@H](CO)NC(=O)[C@H](Cc1c[nH]cn1)NC(=O)[C@H](CCCNC(=N)N)NC(=O)[C@H](CC(C)C)NC(=O)[C@H](Cc1ccccc1)NC(=O)[C@H](CC(N)=O)NC(=O)[C@H](C)NC(=O)[C@H](CC(C)C)NC(=O)[C@H](CCCNC(=N)N)NC(=O)[C@H](CCC(N)=O)NC(=O)[C@@H](NC(=O)[C@H](C)NC(=O)[C@@H]1CSSC[C@H](NC(=O)[C@H](CCCCN)NC(=O)CC[C@H](NC(=O)CCCCCCCCCCCCCCCCCCC(=O)O)C(=O)O)C(=O)N[C@@H](CC(N)=O)C(=O)N[C@@H]([C@@H](C)O)C(=O)N[C@@H](C)C(=O)N[C@@H]([C@@H](C)O)C(=O)N1)[C@@H](C)O)C(=O)N1CCC[C@H]1C(=O)N[C@@H](CO)C(=O)N[C@@H](CO)C(=O)N[C@H](C(=O)N[C@@H](CC(N)=O)C(=O)N[C@H](C(=O)NCC(=O)N[C@@H](CCCNC(=N)N)C(=O)N[C@@H](CC(N)=O)C(=O)N[C@H](C(=O)N[C@@H](Cc1ccc(O)cc1)C(N)=O)[C@@H](C)O)C(C)C)[C@@H](C)O [Peptide 16] |
